{
  "source": "paper PMC5218480",
  "about": "(PLoS ONE, 2017)",
  "test_system": "MV-4-11 cells",
  "assay": "Gene expression microarray analysis (Affymetrix PrimeView) and GSEA",
  "type": "cell-based, human",
  "design": "RFU PODN (11730768_x_at) / Fold change /veh PODN (11730768_x_at) / RFU LINC00158 (11744669_a_at) / Fold change /veh LINC00158 (11744669_a_at) / RFU DUSP10 (11751237_a_at) / Fold change /veh DUSP10 (11751237_a_at) / RFU ID3 (11757404_x_at) / Fold change /veh ID3 (11757404_x_at) / RFU PLEKHG5 (11737974_s_at) / Fold change /veh PLEKHG5 (11737974_s_at) / RFU LRRC4B (11730491_at) / Fold change /veh LRRC4B (11730491_at) / RFU GIMAP4 (11747438_a_at) / Fold change /veh GIMAP4 (11747438_a_at) / RFU KRT8 (11758183_x_at) / Fold change /veh KRT8 (11758183_x_at) / RFU CNN1 (11734310_a_at) / Fold change /veh CNN1 (11734310_a_at) / RFU VPS37D (11726825_at) / Fold change /veh VPS37D (11726825_at) / RFU C10orf10 (11716522_x_at) / Fold change /veh C10orf10 (11716522_x_at) / RFU KIR2DL2 /// KIR2DL4 /// KIR2DL5A /// KIR2DL5B /// KIR2DS1 /// KIR2DS2 /// KIR2DS3 /// KIR2DS4 /// KIR3DL3 /// KIR3DL3 /// KIR3DS1 (11738374_at) / Fold change /veh KIR2DL2 /// KIR2DL4 /// KIR2DL5A /// KIR2DL5B /// KIR2DS1 /// KIR2DS2 /// KIR2DS3 /// KIR2DS4 /// KIR3DL3 /// KIR3DL3 /// KIR3DS1 (11738374_at) / RFU C1QL1 (11718748_at) / Fold change /veh C1QL1 (11718748_at) / RFU TMPRSS4 (11747572_a_at) / Fold change /veh TMPRSS4 (11747572_a_at) / RFU HAMP (11756126_x_at) / Fold change /veh HAMP (11756126_x_at) / RFU RNFT2 (11725882_a_at) / Fold change /veh RNFT2 (11725882_a_at) / RFU NR4A2 (11747474_a_at) / Fold change /veh NR4A2 (11747474_a_at) / RFU ABCC12 (11746883_a_at) / Fold change /veh ABCC12 (11746883_a_at) / RFU TMEM136 (11760407_x_at) / Fold change /veh TMEM136 (11760407_x_at) / RFU CLDN22 /// WWC2 (11732394_at) / Fold change /veh CLDN22 /// WWC2 (11732394_at) / RFU HLA-DPB1 (11760878_x_at) / Fold change /veh HLA-DPB1 (11760878_x_at) / RFU SPINT1 (11716480_a_at) / Fold change /veh SPINT1 (11716480_a_at) / RFU GAP43 (11754022_s_at) / Fold change /veh GAP43 (11754022_s_at) / RFU A4GNT (11735810_at) / Fold change /veh A4GNT (11735810_at) / RFU PRB3 (11715151_x_at) / Fold change /veh PRB3 (11715151_x_at) / RFU TUBB4B (11761932_at) / Fold change /veh TUBB4B (11761932_at) / RFU CAPN14 (11732068_a_at) / Fold change /veh CAPN14 (11732068_a_at) / RFU TMCC2 (11721928_a_at) / Fold change /veh TMCC2 (11721928_a_at) / RFU IRGQ (11745062_a_at) / Fold change /veh IRGQ (11745062_a_at) / RFU FAM174B (11720279_a_at) / Fold change /veh FAM174B (11720279_a_at) / RFU TMPRSS4 (11748680_a_at) / Fold change /veh TMPRSS4 (11748680_a_at) / RFU FAM212B (11763350_a_at) / Fold change /veh FAM212B (11763350_a_at) / RFU PLEKHG5 (11743358_a_at) / Fold change /veh PLEKHG5 (11743358_a_at) / RFU ZSCAN30 (11745921_a_at) / Fold change /veh ZSCAN30 (11745921_a_at) / RFU CMKLR1 (11741424_a_at) / Fold change /veh CMKLR1 (11741424_a_at) / RFU LOC101060620 /// MAPK8IP1 (11723275_at) / Fold change /veh LOC101060620 /// MAPK8IP1 (11723275_at) / RFU SPTSSB (11747773_x_at) / Fold change /veh SPTSSB (11747773_x_at) / RFU PRSS12 (11739890_at) / Fold change /veh PRSS12 (11739890_at) / RFU BIN1 (11741810_x_at) / Fold change /veh BIN1 (11741810_x_at) / RFU WNT11 (11732464_a_at) / Fold change /veh WNT11 (11732464_a_at) / RFU C10orf10 (11716521_a_at) / Fold change /veh C10orf10 (11716521_a_at) / RFU C5orf56 (11738089_at) / Fold change /veh C5orf56 (11738089_at) / RFU CYB561 (11721691_x_at) / Fold change /veh CYB561 (11721691_x_at) / RFU ANKRD19P (11752326_a_at) / Fold change /veh ANKRD19P (11752326_a_at) / RFU OR2T12 /// OR2T33 /// OR2T8 (11738714_s_at) / Fold change /veh OR2T12 /// OR2T33 /// OR2T8 (11738714_s_at) / RFU VCAN (11748164_a_at) / Fold change /veh VCAN (11748164_a_at) / RFU JSRP1 (11732532_at) / Fold change /veh JSRP1 (11732532_at) / RFU KRTAP10-11 (11738290_x_at) / Fold change /veh KRTAP10-11 (11738290_x_at) / RFU MYO3A (11730013_a_at) / Fold change /veh MYO3A (11730013_a_at) / RFU EBF3 (11725865_a_at) / Fold change /veh EBF3 (11725865_a_at) / RFU CAMK2N1 (11719241_x_at) / Fold change /veh CAMK2N1 (11719241_x_at) / RFU C5orf56 (11738088_a_at) / Fold change /veh C5orf56 (11738088_a_at) / RFU OLFML3 (11715873_a_at) / Fold change /veh OLFML3 (11715873_a_at) / RFU LOC100653217 /// NTM (11731650_a_at) / Fold change /veh LOC100653217 /// NTM (11731650_a_at) / RFU MAPK11 (11762145_a_at) / Fold change /veh MAPK11 (11762145_a_at) / RFU FIZ1 (11724087_x_at) / Fold change /veh FIZ1 (11724087_x_at) / RFU OASL (11726364_x_at) / Fold change /veh OASL (11726364_x_at) / RFU SOX15 (11748057_x_at) / Fold change /veh SOX15 (11748057_x_at) / RFU CD79A (11719716_a_at) / Fold change /veh CD79A (11719716_a_at) / RFU HIST1H1D (11736915_at) / Fold change /veh HIST1H1D (11736915_at) / RFU CASKIN2 (11723855_a_at) / Fold change /veh CASKIN2 (11723855_a_at) / RFU LOC730098 (11760151_x_at) / Fold change /veh LOC730098 (11760151_x_at) / RFU OR4N2 (11742367_at) / Fold change /veh OR4N2 (11742367_at) / RFU PRRT2 (11749266_a_at) / Fold change /veh PRRT2 (11749266_a_at) / RFU SNX32 (11753110_a_at) / Fold change /veh SNX32 (11753110_a_at) / RFU CDHR5 (11726645_a_at) / Fold change /veh CDHR5 (11726645_a_at) / RFU RCAN1 (11760418_a_at) / Fold change /veh RCAN1 (11760418_a_at) / RFU FAM167A (11723789_a_at) / Fold change /veh FAM167A (11723789_a_at) / RFU FAM26E (11764081_at) / Fold change /veh FAM26E (11764081_at) / RFU ISYNA1 (11749810_s_at) / Fold change /veh ISYNA1 (11749810_s_at) / RFU ACY1 (11761880_at) / Fold change /veh ACY1 (11761880_at) / RFU 11764098_at / Fold change /veh 11764098_at / RFU SAMD14 (11745864_x_at) / Fold change /veh SAMD14 (11745864_x_at) / RFU NPB (11741838_a_at) / Fold change /veh NPB (11741838_a_at) / RFU TMPRSS6 (11731388_a_at) / Fold change /veh TMPRSS6 (11731388_a_at) / RFU KRTAP10-2 (11738614_at) / Fold change /veh KRTAP10-2 (11738614_at) / RFU ARHGAP8 /// PRR5-ARHGAP8 (11727945_x_at) / Fold change /veh ARHGAP8 /// PRR5-ARHGAP8 (11727945_x_at) / RFU KRTAP5-7 /// NADSYN1 (11734609_at) / Fold change /veh KRTAP5-7 /// NADSYN1 (11734609_at) / RFU RASL12 (11751679_a_at) / Fold change /veh RASL12 (11751679_a_at) / RFU CDKN2B (11736163_a_at) / Fold change /veh CDKN2B (11736163_a_at) / RFU PRF1 (11729649_at) / Fold change /veh PRF1 (11729649_at) / RFU, ZNF638 /// ZNF638-IT1 / Fold change vs veh, ZNF638 /// ZNF638-IT1 / RFU, PANK3 / Fold change vs veh, PANK3 / RFU, SH3YL1 / Fold change vs veh, SH3YL1 / RFU, ZEB2 / Fold change vs veh, ZEB2 / RFU, NRIP1 / Fold change vs veh, NRIP1 / RFU, PTTG1IP / Fold change vs veh, PTTG1IP / RFU, CAPN2 / Fold change vs veh, CAPN2 / RFU, MED14 / Fold change vs veh, MED14 / RFU, SNORA58 / Fold change vs veh, SNORA58 / RFU, C1orf63 / Fold change vs veh, C1orf63 / RFU, LRRFIP1 / Fold change vs veh, LRRFIP1 / RFU, NDUFAF7 / Fold change vs veh, NDUFAF7 / RFU, SLC12A2 / Fold change vs veh, SLC12A2 / RFU, IBTK / Fold change vs veh, IBTK / RFU, ESF1 / Fold change vs veh, ESF1 / Fold change vs veh, TMEM50B / RFU, TAOK1 / Fold change vs veh, TAOK1 / RFU, ACBD3 / Fold change vs veh, ACBD3 / RFU, TMA16 / Fold change vs veh, TMA16 / RFU, RWDD3 / Fold change vs veh, RWDD3 / RFU, BCAT1 / Fold change vs veh, BCAT1 / RFU, EDEM3 / Fold change vs veh, EDEM3 / RFU, TMEM33 / Fold change vs veh, TMEM33 / RFU, WDR75 / Fold change vs veh, WDR75 / RFU, AHCTF1 / Fold change vs veh, AHCTF1 / RFU, TFRC / Fold change vs veh, TFRC / RFU, ZDHHC17 / Fold change vs veh, ZDHHC17 / RFU, NOM1 / Fold change vs veh, NOM1 / RFU, ARL8B / Fold change vs veh, ARL8B / RFU, ZBTB11 / Fold change vs veh, ZBTB11 / RFU, TAMM41 / Fold change vs veh, TAMM41 / RFU, KIAA1704 /// LOC100996395 / Fold change vs veh, KIAA1704 /// LOC100996395 / RFU, ING1 / Fold change vs veh, ING1 / RFU, TRMT61B / Fold change vs veh, TRMT61B / RFU, FUBP3 / Fold change vs veh, FUBP3 / RFU, TP53 / Fold change vs veh, TP53 / RFU, TNKS2 / Fold change vs veh, TNKS2 / RFU, ZFP14 / Fold change vs veh, ZFP14 / RFU, ACTR2 / Fold change vs veh, ACTR2 / RFU, PPP3R1 / Fold change vs veh, PPP3R1 / RFU, PIK3R1 / Fold change vs veh, PIK3R1 / RFU, HNRNPA1 / Fold change vs veh, HNRNPA1 / RFU, RNF170 / Fold change vs veh, RNF170 / RFU, ZNF28 / Fold change vs veh, ZNF28 / RFU, RNGTT / Fold change vs veh, RNGTT / RFU, OGT / Fold change vs veh, OGT / RFU, BRD1 / Fold change vs veh, BRD1 / RFU, MARS / Fold change vs veh, MARS / RFU, ZNF655 / Fold change vs veh, ZNF655 / RFU, FAHD1 / Fold change vs veh, FAHD1 / RFU, BDP1 / Fold change vs veh, BDP1 / RFU, LRRCC1 / Fold change vs veh, LRRCC1 / RFU, ARID1A / Fold change vs veh, ARID1A / RFU, ZNF146 / Fold change vs veh, ZNF146 / RFU, ZNF330 / Fold change vs veh, ZNF330 / RFU, GPN3 / Fold change vs veh, GPN3 / RFU, C9orf123 / Fold change vs veh, C9orf123 / RFU, N4BP2L2 / Fold change vs veh, N4BP2L2 / RFU, ARFIP1 / Fold change vs veh, ARFIP1 / RFU, FAM179B / Fold change vs veh, FAM179B / RFU, BCL10 / Fold change vs veh, BCL10 / RFU, UHRF1BP1L / Fold change vs veh, UHRF1BP1L / RFU, BET1 / Fold change vs veh, BET1 / RFU, CNOT2 / Fold change vs veh, CNOT2 / RFU, ZNF268 / Fold change vs veh, ZNF268 / Fold change vs veh, ZNF507 / RFU, DGCR2 / Fold change vs veh, DGCR2 / RFU, WDSUB1 / Fold change vs veh, WDSUB1 / Fold change vs veh, HSP90B1 /// MIR3652 / RFU, ADSS / Fold change vs veh, ADSS / RFU, GK / Fold change vs veh, GK / RFU, ZNF148 / Fold change vs veh, ZNF148 / RFU, TAF9 / Fold change vs veh, TAF9 / RFU, SLC1A5 / Fold change vs veh, SLC1A5 / RFU, SLMO2 / Fold change vs veh, SLMO2 / RFU, ABCC4 / Fold change vs veh, ABCC4 / RFU, LOC101060439 /// RAP1B / Fold change vs veh, LOC101060439 /// RAP1B / RFU, RFX7 / Fold change vs veh, RFX7 / RFU, GTPBP10 / Fold change vs veh, GTPBP10 / RFU, CNEP1R1 / Fold change vs veh, CNEP1R1 / RFU, BIVM-ERCC5 /// ERCC5 / Fold change vs veh, BIVM-ERCC5 /// ERCC5 / RFU, ILF3 / Fold change vs veh, ILF3 / RFU 11762660_at / Fold change /veh 11762660_at / RFU VCAN (11757783_s_at) / Fold change /veh VCAN (11757783_s_at) / RFU DDX43 (11728927_at) / Fold change /veh DDX43 (11728927_at) / RFU KRT8 (11758188_x_at) / Fold change /veh KRT8 (11758188_x_at) / RFU NKD1 (11759106_at) / Fold change /veh NKD1 (11759106_at) / RFU SRD5A1 (11742802_a_at) / Fold change /veh SRD5A1 (11742802_a_at) / RFU TPSAB1 /// TPSB2 (11721975_s_at) / Fold change /veh TPSAB1 /// TPSB2 (11721975_s_at) / RFU GSTM3 (11746129_a_at) / Fold change /veh GSTM3 (11746129_a_at) / RFU IL23R (11737362_x_at) / Fold change /veh IL23R (11737362_x_at) / RFU TMEM51 (11727254_a_at) / Fold change /veh TMEM51 (11727254_a_at) / RFU PIWIL2 (11732686_x_at) / Fold change /veh PIWIL2 (11732686_x_at) / RFU ORM1 (11744905_x_at) / Fold change /veh ORM1 (11744905_x_at) / RFU CCDC152 (11743942_at) / Fold change /veh CCDC152 (11743942_at) / RFU ECM1 (11717891_a_at) / Fold change /veh ECM1 (11717891_a_at) / RFU IL23R (11748794_a_at) / Fold change /veh IL23R (11748794_a_at) / RFU TNFAIP8L3 (11732012_x_at) / Fold change /veh TNFAIP8L3 (11732012_x_at) / RFU MBOAT4 (11741988_at) / Fold change /veh MBOAT4 (11741988_at) / RFU 11764193_at / Fold change /veh 11764193_at / RFU TMEM53 (11763286_at) / Fold change /veh TMEM53 (11763286_at) / RFU MAGEB2 (11727129_at) / Fold change /veh MAGEB2 (11727129_at) / RFU TMEM200A (11744735_a_at) / Fold change /veh TMEM200A (11744735_a_at) / RFU CCDC152 (11751479_a_at) / Fold change /veh CCDC152 (11751479_a_at) / RFU FAM211A (11726209_a_at) / Fold change /veh FAM211A (11726209_a_at) / RFU RGS16 (11746705_a_at) / Fold change /veh RGS16 (11746705_a_at) / RFU VCAN (11755009_s_at) / Fold change /veh VCAN (11755009_s_at) / RFU RHOB (11743442_s_at) / Fold change /veh RHOB (11743442_s_at) / RFU RGS16 (11720943_a_at) / Fold change /veh RGS16 (11720943_a_at) / RFU RGS16 (11720944_at) / Fold change /veh RGS16 (11720944_at) / RFU, VPS4B / Fold change vs veh, VPS4B / RFU, CREB1 / Fold change vs veh, CREB1 / RFU, DNAJC13 / Fold change vs veh, DNAJC13 / RFU, GNAQ / Fold change vs veh, GNAQ / RFU, CDK5R1 / Fold change vs veh, CDK5R1 / RFU, ZRANB3 / Fold change vs veh, ZRANB3 / RFU, CUL4A / Fold change vs veh, CUL4A / RFU, CCNY / Fold change vs veh, CCNY / RFU, UFL1 / Fold change vs veh, UFL1 / RFU, COG3 / Fold change vs veh, COG3 / RFU, DIAPH2 / Fold change vs veh, DIAPH2 / RFU, SKA2 / Fold change vs veh, SKA2 / RFU, AFF3 / Fold change vs veh, AFF3 / RFU, LMF1 / Fold change vs veh, LMF1 / RFU, IPO11 / Fold change vs veh, IPO11 / RFU, DFFB / Fold change vs veh, DFFB / RFU, FOXP1 / Fold change vs veh, FOXP1 / RFU, CARD8 / Fold change vs veh, CARD8 / RFU, STRN3 / Fold change vs veh, STRN3 / RFU, ADK / Fold change vs veh, ADK / RFU, RASSF2 / Fold change vs veh, RASSF2 / RFU, WIPF1 / Fold change vs veh, WIPF1 / RFU, LARP1B / Fold change vs veh, LARP1B / RFU, RASA1 / Fold change vs veh, RASA1 / RFU, RB1 / Fold change vs veh, RB1 / RFU, PPFIA1 / Fold change vs veh, PPFIA1 / RFU, MAT2A / Fold change vs veh, MAT2A / RFU, CCT5 / Fold change vs veh, CCT5 / RFU, WDR92 / Fold change vs veh, WDR92 / RFU, CUX1 / Fold change vs veh, CUX1 / RFU, TTC7A / Fold change vs veh, TTC7A / RFU, TMEM135 / Fold change vs veh, TMEM135 / RFU, DEPTOR / Fold change vs veh, DEPTOR / RFU, CPM / Fold change vs veh, CPM / RFU, DNAJB6 / Fold change vs veh, DNAJB6 / RFU, CACNA2D3 / Fold change vs veh, CACNA2D3 / RFU, DTX4 / Fold change vs veh, DTX4 / RFU, TFCP2 / Fold change vs veh, TFCP2 / RFU, GMCL1 /// GMCL1P1 / Fold change vs veh, GMCL1 /// GMCL1P1 / RFU, AEBP2 / Fold change vs veh, AEBP2 / RFU, SNHG1 /// SNORD22 /// SNORD25 /// SNORD26 /// SNORD27 /// SNORD28 /// SNORD29 /// SNORD31 / Fold change vs veh, SNHG1 /// SNORD22 /// SNORD25 /// SNORD26 /// SNORD27 /// SNORD28 /// SNORD29 /// SNORD31 / Fold change (Aza/veh), C12orf56 (ProbeSet 11735607_a_at) / Fold change (ACY-1035/veh), C12orf56 (ProbeSet 11735607_a_at) / Fold change (Aza/veh), FGFR1OP (ProbeSet 11751329_s_at) / Fold change (ACY-1035/veh), FGFR1OP (ProbeSet 11751329_s_at) / Fold change (Aza/veh), VPS36 (ProbeSet 11739960_a_at) / Fold change (ACY-1035/veh), VPS36 (ProbeSet 11739960_a_at) / RFU SYPL1 (11715823_x_at) / Fold change /veh SYPL1 (11715823_x_at) / RFU IGFBP7 (11715501_s_at) / Fold change /veh IGFBP7 (11715501_s_at) / RFU REEP3 (11722064_at) / Fold change /veh REEP3 (11722064_at) / RFU IGLL1 (11728026_x_at) / Fold change /veh IGLL1 (11728026_x_at): dose or concentration left out as unconfirmed",
  "conditions": "ProbeSet 11757113_a_at; LIST D",
  "data": [
    {"smiles": "Nc1ccc(-c2cccs2)cc1NC(=O)c1ccc2c(c1)cc(C1CC1)n2CCN1CCOCC1", "note": "[ACY-1035]", "values": [
      {"measurement": "Fold change vs veh, SNHG1 /// SNORD22 /// SNORD25 /// SNORD26 /// SNORD27 /// SNORD28 /// SNORD29 /// SNORD31", "result": 0.87}
    ]}
  ]
}
